This note sets out measurements from ChEMBL document CHEMBL1143656, “A novel series of potent gamma-secretase inhibitors based on a benzobicyclo[4.2.1]nonane core” (Bioorg Med Chem Lett, 2005).

For one experiment, the target named is Gamma-secretase. The experiment can be described thus: Inhibitory concentration against Gamma-secretase in whole cell inhibition assay using SH-SY5Y cells. In kind it is functional, cell-based, Homo sapiens.
Experiment [1] deals with Mus musculus. Nature of the experiment: Concentration of […] beta40 in plasma of transgenic APP-YAC mice 4 hr after 100 mg/kg peroral dose. Format: functional, organism-based. Also noted: dose 100 mg/kg.
Experiment [2] concerns Mus musculus. Nature of the experiment: Concentration of […] beta40 in brain of transgenic APP-YAC mice 4 hr after 100 mg/kg peroral dose. Format: functional. The settings on record: route oral.
Experiment [3] deals with Mus musculus. Nature of the experiment: Reduction of […] beta-40 in transgenic APP-YAC mice 4 hr after 100 mg/kg peroral dose. Format: functional. The following applies: route oral.

Some results are limits rather than exact numbers.

Usually IC50 stands for the point on the concentration scale where inhibition reaches its midpoint. The low end stands for greater potency in that assay, the high end for weaker potency in that assay. On to `O=S(=O)(NC1C2CCC1Cc1ccccc1C2)c1ccc(C(F)(F)F)cc1` (stereo not given), for which the 50% inhibitory concentration (IC50) against Gamma-secretase is more than 1000 nM. As for `O=S(=O)(NC1C2CCC1Cc1ccccc1C2)c1ccc(F)cc1` (stereo not given), the midpoint of inhibition at Gamma-secretase, the IC50, lay at 129 nM.

At Gamma-secretase, `O=C(Nc1ccc2c(c1)CC1CCC(C2)C1NS(=O)(=O)c1ccccc1)OCc1ccc(Cl)cc1` (stereo not given) showed a concentration for half-maximal inhibition (IC50) of 16 nM. On the same count and under the same terms, the figure for `CC(=O)Nc1ccc2c(c1)CC1CCC(C2)C1NS(=O)(=O)c1ccccc1` (stereo not given) is more than 1000 nM; for `O=S(=O)(NC1C2CCC1Cc1ccccc1C2)c1ccc(Cl)cc1` (stereo not given) it is 467 nM; for `O=C(Nc1ccc2c(c1)CC1CCC(C2)C1NS(=O)(=O)c1ccc(Cl)s1)OCc1ccccc1` (stereo not given) it is 23 nM. Same read-out and setting: the figure for `O=S(=O)(NC1C2CCC1Cc1ccccc1C2)c1cccs1` (stereo not given) is 50 nM; for `CCS(=O)(=O)NC1C2CCC1Cc1ccccc1C2` (stereo not given) it is more than 1000 nM; for `O=S(=O)(NC1C2CCC1Cc1cc(OCCN3CCCCC3)ccc1C2)c1ccc(Cl)s1` (stereo not given) it is 73 nM.

For the compound `O=C(Nc1ccc2c(c1)CC1CCC(C2)C1NS(=O)(=O)c1ccc(Cl)s1)c1ccccn1` (stereo not given), the IC50 against Gamma-secretase came out at 12 nM. The same measure, in the same setting: the figure for `O=S(=O)(NC1C2CCC1Cc1cc(F)ccc1C2)c1ccc(Cl)s1` (stereo not given) is 29 nM; for `CC1CCCCN1CCOc1ccc2c(c1)CC1CCC(C2)C1NS(=O)(=O)c1ccc(Cl)s1` (stereo not given) it is 227 nM.

For `O=S(=O)(NC1C2CCC1Cc1cc(/C=C/CN3CCCCC3)ccc1C2)c1ccc(Cl)s1` (stereo not given), the IC50 against Gamma-secretase stood at 152 nM. `COCC(=O)Nc1ccc2c(c1)CC1CCC(C2)C1NS(=O)(=O)c1ccccc1` (stereo not given): at Gamma-secretase, the concentration for half-maximal inhibition (IC50) is more than 1000 nM. Still for that read-out and setting: the figure for `CC(C)CCCC(=O)Nc1ccc2c(c1)CC1CCC(C2)C1NS(=O)(=O)c1ccccc1` (stereo not given) is 535 nM. Same read-out and setting: to `Nc1ccc2c(c1)CC1CCC(C2)C1NS(=O)(=O)c1ccccc1` (stereo not given) belongs 6000 nM; to `O=C(Nc1ccc2c(c1)CC1CCC(C2)C1NS(=O)(=O)c1ccccc1)OCc1ccccc1Cl` (stereo not given), 153 nM; to `CN(CC(=O)Nc1ccc2c(c1)CC1CCC(C2)C1NS(=O)(=O)c1ccc(Cl)s1)Cc1ccccc1` (stereo not given), 226 nM. The same measure, in the same setting: the figure for `CN1CCN(C/C=C/c2ccc3c(c2)CC2CCC(C3)C2NS(=O)(=O)c2ccc(Cl)s2)CC1` (stereo not given) is 39 nM; for `Cc1ccc(S(=O)(=O)NC2C3CCC2Cc2ccccc2C3)cc1` (stereo not given) it is 651 nM; for `Cc1cccc(S(=O)(=O)NC2C3CCC2Cc2ccccc2C3)c1` (stereo not given) it is more than 1000 nM. Turning to `O=C(CN1CCCCC1)Nc1ccc2c(c1)CC1CCC(C2)C1NS(=O)(=O)c1ccc(Cl)s1` (stereo not given), the concentration for half-maximal inhibition (IC50) against Gamma-secretase is 6 nM. The same measure, in the same setting: the figure for `CCCCS(=O)(=O)NC1C2CCC1Cc1ccccc1C2` (stereo not given) is 610 nM; for `O=S(=O)(NC1C2CCC1Cc1cc(/C=C/CN3CCOCC3)ccc1C2)c1ccc(Cl)s1` (racemic) it is 5 nM. In the experiment with Mus musculus [1], `O=S(=O)(NC1C2CCC1Cc1cc(/C=C/CN3CCOCC3)ccc1C2)c1ccc(Cl)s1` (stereo in doubt; form 1) [listing 1 of 2 here] returned a Plasma concentration of more than 7.91 µM. `O=C(CCc1ccccc1)Nc1ccc2c(c1)CC1CCC(C2)C1NS(=O)(=O)c1ccccc1` (stereo not given): the IC50 at Gamma-secretase is more than 1000 nM. `O=C(Nc1ccc2c(c1)CC1CCC(C2)C1NS(=O)(=O)c1ccccc1)c1ccccn1` (stereo not given) gave an IC50 on Gamma-secretase of 75 nM. For `CCCS(=O)(=O)NC1C2CCC1Cc1ccccc1C2` (stereo not given), the concentration for half-maximal inhibition (IC50) against Gamma-secretase is 721 nM.

Compound `O=S(=O)(NC1C2CCC1Cc1ccccc1C2)c1ccc(Cl)s1` (stereo not given) displayed an IC50 at Gamma-secretase of 62 nM. On to `O=C(Nc1ccc2c(c1)CC1CCC(C2)C1NS(=O)(=O)c1ccccc1)c1ccccc1` (stereo not given), for which, at Gamma-secretase, the half-maximal inhibitory concentration (IC50) is more than 1000 nM. Still for that read-out and setting: to `O=[N+]([O-])c1ccc(S(=O)(=O)NC2C3CCC2Cc2ccccc2C3)cc1` (stereo not given) belongs more than 1000 nM. Regarding `COc1ccc2c(c1)CC1CCC(C2)C1NS(=O)(=O)c1ccc(Cl)s1` (stereo not given), the midpoint of inhibition at Gamma-secretase, the IC50, lay at 490 nM. The same measure, in the same setting: to `CCCCCS(=O)(=O)NC1C2CCC1Cc1ccccc1C2` (stereo not given) belongs more than 1000 nM; to `O=C(CN1CCCC1)Nc1ccc2c(c1)CC1CCC(C2)C1NS(=O)(=O)c1ccc(Cl)s1` (stereo not given), 7 nM. Same read-out and setting: the figure for `O=C(Nc1ccc2c(c1)CC1CCC(C2)C1NS(=O)(=O)c1ccccc1)OCc1cccc(Cl)c1` (stereo not given) is 412 nM; for `O=C(CNCc1ccccc1)Nc1ccc2c(c1)CC1CCC(C2)C1NS(=O)(=O)c1ccc(Cl)s1` (stereo not given) it is 3490 nM. Still for that read-out and setting: the figure for `O=S(=O)(NC1C2CCC1Cc1cc(OCCN3CCC(O)C3)ccc1C2)c1ccc(Cl)s1` (stereo not given) is 209 nM. On Gamma-secretase, `CCc1ccc(S(=O)(=O)NC2C3CCC2Cc2ccccc2C3)cc1` (stereo not given) gave an IC50 of more than 1000 nM.

`O=C(Nc1ccc2c(c1)CC1CCC(C2)C1NS(=O)(=O)c1ccccc1)c1ccncc1` (stereo not given) yielded an IC50 against Gamma-secretase of more than 1000 nM. Still for that read-out and setting: to `O=S(=O)(NC1C2CCC1Cc1ccccc1C2)c1ccccc1F` (stereo not given) belongs 239 nM; to `O=S(=O)(NC1C2CCC1Cc1cc(F)ccc1C2)c1ccccc1` (stereo not given), 70 nM; to `O=S(=O)(NC1C2CCC1Cc1c(Cl)cccc1C2)c1ccc(Cl)s1` (stereo not given), 175 nM.

At Gamma-secretase, `O=S(=O)(NC1C2CCC1Cc1cc(/C=C/Cn3ccnc3)ccc1C2)c1ccc(Cl)s1` (stereo not given) returned a half-maximal inhibitory concentration (IC50) of 15 nM. The same measure, in the same setting: the figure for `O=S(=O)(NC1C2CCC1Cc1cc(Cl)ccc1C2)c1ccc(Cl)s1` (stereo not given) is 146 nM; for `O=S(=O)(NC1C2CCC1Cc1cc(/C=C/CN3CCN(c4ccccc4)CC3)ccc1C2)c1ccc(Cl)s1` (stereo not given) it is 21 nM; for `CC1CCCN1CCOc1ccc2c(c1)CC1CCC(C2)C1NS(=O)(=O)c1ccc(Cl)s1` (stereo not given) it is 335 nM. `O=S(=O)(NC1C2CCC1Cc1cc(/C=C/CN3CCOCC3)ccc1C2)c1ccc(Cl)s1` (stereo in doubt; form 2): at Gamma-secretase, the concentration for half-maximal inhibition (IC50) is 315 nM. Still for that read-out and setting: to `CCN(CC)CC(=O)Nc1ccc2c(c1)CC1CCC(C2)C1NS(=O)(=O)c1ccc(Cl)s1` (stereo not given) belongs 41 nM. Still for that read-out and setting: the figure for `O=S(=O)(NC1C2CCC1Cc1cc(O)ccc1C2)c1ccc(Cl)s1` (stereo not given) is 269 nM. `O=S(=O)(NC1C2CCC1Cc1cc(OCCN3CCOCC3)ccc1C2)c1ccc(Cl)s1` (stereo not given): the half-maximal inhibitory concentration (IC50) against Gamma-secretase was found to be 5 nM. `O=S(=O)(NC1C2CCC1Cc1ccccc1C2)c1ccccc1` (stereo not given) displayed an IC50 on Gamma-secretase of 190 nM.

In the case of `O=S(=O)(NC1C2CCC1Cc1cc(/C=C/CN3CCOCC3)ccc1C2)c1ccc(Cl)s1` (stereo in doubt; form 1) [listing 2 of 2 here], on Gamma-secretase, 1 nM corresponded to half-maximal inhibition (IC50). In addition, the Brain concentration in the experiment with Mus musculus [2] stood at 16.7 µM. This compound returned a Reduction with Mus musculus [3] of 50%. In the case of `CCCCCC(=O)Nc1ccc2c(c1)CC1CCC(C2)C1NS(=O)(=O)c1ccccc1` (stereo not given), the half-inhibitory concentration (IC50) at Gamma-secretase was more than 1000 nM. Still for that read-out and setting: the figure for `CN1CCN(CC(=O)Nc2ccc3c(c2)CC2CCC(C3)C2NS(=O)(=O)c2ccc(Cl)s2)CC1` (stereo not given) is 69 nM; for `O=S(=O)(NC1C2CCC1Cc1ccccc1C2)c1cccc(F)c1` (stereo not given) it is 324 nM; for `O=C(CN1CCOCC1)Nc1ccc2c(c1)CC1CCC(C2)C1NS(=O)(=O)c1ccc(Cl)s1` (stereo not given) it is 7 nM.

As for `O=S(=O)(NC1C2CCC1Cc1cc(OCCN3CCC(O)CC3)ccc1C2)c1ccc(Cl)s1` (stereo not given), 623 nM corresponded to half-maximal inhibition against Gamma-secretase (IC50).

On Gamma-secretase, `O=S(=O)(NC1C2CCC1Cc1c(F)cccc1C2)c1ccc(Cl)s1` (stereo not given) returned a concentration for half-maximal inhibition (IC50) of 34 nM. `O=C(Nc1ccc2c(c1)CC1CCC(C2)C1NS(=O)(=O)c1ccccc1)c1cccnc1` (stereo not given) displayed an IC50 on Gamma-secretase of more than 1000 nM. On the same count and under the same terms, to `O=C(CN1CCN(c2ccccc2)CC1)Nc1ccc2c(c1)CC1CCC(C2)C1NS(=O)(=O)c1ccc(Cl)s1` (stereo not given) belongs 5 nM; to `O=S(=O)(NC1C2CCC1Cc1ccccc1C2)c1cc(Cl)c(Cl)s1` (stereo not given), more than 1000 nM; to `O=C(Nc1ccc2c(c1)CC1CCC(C2)C1NS(=O)(=O)c1ccccc1)OCc1ccccc1` (stereo not given), 74 nM.

Compound `CC(C)(C)c1ccc(S(=O)(=O)NC2C3CCC2Cc2ccccc2C3)cc1` (stereo not given) registered an IC50 at Gamma-secretase of more than 1000 nM.
